Assays:
[1] = test system: A. baumannii ATCC 17978 native ADC KO, OXA-24 pWH1266; experiment: Antimicrobial susceptibility testing, broth microdilution; assay type: cell-based; settings: BLI none; ATCC 17978 ADC KO, OXA-24 pWH1266
Experimental: (§1) The inhibitory effects of both compounds were tested against ADC-33 and OXA-24/-40 in A. baumannii, their native host. ATCC 17978, with its intrinsic chromosomal ADC knocked out (intrinsic OXA still present), was used in these experiments. In this isolate, the ADC MICs were not lowered by the inhibitors as much as they were against the E. coli background (Table 4).
(§2) pWH1266 is a vector that replicates in A. baumannii, and the […] pWH1266 construct was generated as follows. The TEM gene was removed using inverse PCR, and an Xba1 site was engineered into the vector. blaOXA-24/40 and its upstream XerC/XerD were amplified from strain NM55. The amplified gene was cloned into the Xba1 site of the altered pWH1266 vector. The construct was confirmed using PCR and sequencing. Both blaADC-33 pQF1266 and […] pWH1266 were then expressed in A. baumannii ATCC 17978 that had the intrinsic chromosomal ADC gene knocked out.
(§3) The chromosomal blaADC-51 gene in ATCC 17978 was deleted and replaced with an apramycin resistance cassette using the recombineering method described by Tucker et al.. Primers used for this deletion were: Del AmpC-apra.For: […]; and Del AmpC-apra.Rev: […]. The correct deletion mutant was confirmed using PCR and sequencing.
(§4) Testing of susceptibility to standard antibiotics was performed with broth microdilution according to CLSI guidelines. MICs for CAZ, CTX, FEP, and IMI were determined using cation-adjusted Mueller–Hinton broth according to CLSI methods, and CR167 or 6b was used at a fixed concentration of 10 mg/L. All MICs were interpreted according to the 2022 Clinical and Laboratory Standards Institute (CLSI) guidelines.

[2] = test system: E. coli DH10B pBCSK, blaADC-7; design: method as in PMID 29144724; settings: without inhibitor; cited from earlier work
[3] = test system: E. coli DH10B, ADC-7 in pBCSK-; experiment: Antimicrobial susceptibility testing, broth microdilution; assay type: cell-based; settings: BLI none; E. coli DH10B ADC-7 pBCSK-
Experimental: (§5) Based upon the inhibitor kinetics (Ki determinations), CR167 and the sulfonamidoboronic acid 6b were tested against E. coli strains expressing ADC-7 and ADC-33 cloned into pBCSK- (DH10B) (Table 3).
(§6) blaADC-7 pBCSK- and blaADC-33 pBCSK- were cloned and expressed in E. coli DH10B cells as previously described.
as §4

[4] = test system: E. coli DH10B, ADC-33 in pBCSK-; experiment: as above; assay type: cell-based; settings: BLI none; E. coli DH10B ADC-33 pBCSK-
Experimental: as §5, §6, §4

[5] = test system: clinical A. baumannii isolate PR462 (OXA-24, OXA-65, ADC-214); experiment: Antimicrobial susceptibility testing, clinical isolate, broth microdilution; assay type: cell-based; settings: BLI none
Experimental: (§7) Clinical A. baumannii isolates containing ADC-33 or OXA-24/-40 in combination with various other well-defined β-lactamases were also tested against CR167 and 6b (Table 5).
(§8) The clinical A. baumannii isolates used to test the β-lactamase inhibitors were selected from a previously well-characterized collection in our lab. They were chosen as they had either ADC-33 and/or OXA-24 in combination with other known β-lactamases (for specific combinations, see Table 5).
as §4

[6] = test system: clinical A. baumannii isolate PR474 (OXA-23, OXA-24, OXA-65, ADC-218); experiment: as above; assay type: cell-based; settings: BLI none; PR474
Experimental: as §7, §8, §4

[7] = test system: clinical A. baumannii isolate PR396 (OXA-82, ADC-33); experiment: as above; assay type: cell-based; settings: BLI none
Experimental: as §7, §8, §4

[8] = test system: clinical A. baumannii isolate PR323 (OXA-24, OXA-65, ADC-218); experiment: as above; assay type: cell-based; settings: BLI none; PR323
Experimental: as §7, §8, §4

[9] = test system: clinical A. baumannii isolate PR378 (OXA-24, OXA-65, TEM-1); experiment: as above; assay type: cell-based; settings: BLI none; PR378
Experimental: as §7, §8, §4

[10] = test system: clinical A. baumannii isolate PR328 (OXA-23, OXA-82, ADC-33); experiment: as above; assay type: cell-based; settings: BLI none; PR328
Experimental: as §7, §8, §4

[11] = test system: clinical A. baumannii isolate PR408 (OXA-24, OXA-71, ADC-212); experiment: as above; assay type: cell-based; settings: BLI none; PR408
Experimental: as §7, §8, §4

[12] = test system: A. baumannii ATCC 17978 native ADC KO, ADC-33 pQF1266; experiment: Antimicrobial susceptibility testing, broth microdilution; assay type: cell-based; settings: BLI none; ATCC 17978 ADC KO, ADC-33 pQF1266
Experimental: as §1
Plasmid pBCSK- containing the blaADC-33 gene was digested with PvuII, which released the blaADC-33 gene, along with the lac promoter, which drives expression. This PvuII fragment was cloned into the SmaI site of the pQF1266 plasmid.
as §2, §3, §4

ADC-33 = ADC-33 (Acinetobacter baumannii, UniProt A7Y407); experiment: Ki determination, competition assay with nitrocefin (NCF) as substrate; assay type: biochemical; settings: for Ki: corrected for NCF affinity, 5 min pre-incubation, pH 7.4
Experimental: (§9) The affinity of CR167 for the two different β-lactamases was measured in competition assays using nitrocefin (NCF) as the indicator substrate (Table 1).
(§10) The binding affinity of each of the compounds 6a–e with ADC-33 and with OXA-24/40 was determined after 5 min pre-incubation of boronic acid and the enzyme, using competition assays with nitrocefin (NCF) as the substrate. […] These compounds differ in three structural characteristics: stereochemistry, the presence of the m-carboxylate on the aromatic ring, and the small chain linked to the chiral center. […] Finally, the smaller the steric hindrance is at the R1 position, the higher the affinity is.
(§11) Ki values were determined by using nitrocefin as a reporter substrate and treating the compounds as competitive inhibitors. Steady-state kinetic parameters were determined by combining pure enzyme with nitrocefin in 50 mM NaH2PO4; 25 mM NaHCO3, pH 7.4 (for OXA-24/40); or 50 mM NaH2PO4, pH 7.4 (for ADC-33), at room temperature. Changes in absorbance were measured on a Cary 60 UV−Vis spectrophotometer (Agilent Technologies) and converted to velocity using the change-in-extinction coefficient specific to nitrocefin (ε = 17,400 M^−1·cm^−1 at 482 nm). Initial velocities were fit to the Michaelis–Menten equation, yielding kcat and Km values. Next, the enzyme was challenged with a constant concentration of nitrocefin and increasing amounts of inhibitor. IC50 values were used to calculate Ki values using the Cheng–Prusoff equation as previously described. Specifically, the measurements of the initial velocities were performed with the addition of 100 µM NCF after a 5 min pre-incubation of the enzyme (2 nM) with increasing concentration of the inhibitor [37]. To determine the average velocities (v0), data from three experiments were fit to Equation (1): (1) v0=vu −{vu[I]/IC 50+[I]} where vu represents the NCF uninhibited velocity and IC50 represents the inhibitor concentration that results in a 50% reduction in vu. The Ki value was corrected for the NCF affinity (Km values for both OXA-24/40 and ADC-33) with the Cheng–Prusoff equation (Equation (2)): (2) Ki=IC50/(1+[NCF]/KmNCF)

OXA-24/40 [13] = biological target: T1, OXA-24/40 (Acinetobacter baumannii, UniProt Q8RLA6); experiment: as above; assay type: biochemical; settings: corrected for NCF affinity; 5 min pre-incubation; pH 7.4, 25 mM NaHCO3; read-out: Ki OXA-24/40
T1 construct: made in house
T1 sequence (Q8RLA6 22-275): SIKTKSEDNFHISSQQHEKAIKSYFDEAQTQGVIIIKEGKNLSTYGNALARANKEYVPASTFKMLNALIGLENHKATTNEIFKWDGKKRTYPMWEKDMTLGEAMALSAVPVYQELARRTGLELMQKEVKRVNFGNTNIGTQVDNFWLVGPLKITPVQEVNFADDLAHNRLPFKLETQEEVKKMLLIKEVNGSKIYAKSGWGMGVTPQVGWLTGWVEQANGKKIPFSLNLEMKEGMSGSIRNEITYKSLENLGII
Experimental: as §9, §10, §11

OXA-24/40 [14] = test system: OXA-24/40; design: method as in PMID 20299220; settings: cited from earlier work

Row | Ki (ADC-33) [µM] | Ki (OXA-24/40 [13]) [µM] | Compound | MIC, antibiotic alone [1] [mg/L] | MIC, antibiotic alone [3] [mg/L] | MIC, antibiotic alone [4] [mg/L] | MIC, antibiotic alone [5] [mg/L] | MIC, antibiotic alone [6] [mg/L] | MIC, antibiotic alone [7] [mg/L] | MIC, antibiotic alone [8] [mg/L] | MIC, antibiotic alone [9] [mg/L] | MIC, antibiotic alone [10] [mg/L] | MIC, antibiotic alone [11] [mg/L] | MIC, antibiotic alone [12] [mg/L] | further results
1 | – | – | CC(C)(O/N=C(\C(=O)N[C@@H]1C(=O)N2C(C(=O)[O-])=C(C[n+]3ccccc3)CS[C@H]12)c1csc(N)n1)C(=O)O [CAZ, ceftazidime, reference compound] | 8 | 64 | 2048 | 256 | 4096 | 2048 | 4096 | 64 | 2048 | 1024 | 128 | MIC for CAZ alone [2]: 64 mg/L
2 | 3.7 ± 0.6 | > 1000 | CC[C@H](NS(=O)(=O)Cc1cccc(C(=O)O)c1)B(O)O [6e] | – | – | – | – | – | – | – | – | – | – | – | –
3 | – | – | O=S(=O)(NCB(O)O)c1cc2c(Cl)ccc(Cl)c2s1 [DSABA, 4,7-dichloro-1-benzothien-2-yl-sulfonylaminomethyl boronic acid] | – | – | – | – | – | – | – | – | – | – | – | IC50 (OXA-24/40 [14]): 5.6 µM
4 | – | – | CO/N=C(\C(=O)N[C@@H]1C(=O)N2C(C(=O)[O-])=C(C[N+]3(C)CCCC3)CS[C@H]12)c1csc(N)n1 [FEP, cefepime, reference compound] | 32 | 0.5 | 0.5 | – | – | – | – | – | – | – | 4 | –
5 | – | – | C[C@@H](O)[C@H]1C(=O)N2C(C(=O)O)=C(SCCN=CN)C[C@H]12 [IMI, reference compound] | – | – | – | 64 | 128 | 64 | 128 | 256 | 128 | 128 | – | –
6 | 22 ± 3 | 320 ± 30 | CC[C@@H](NS(=O)(=O)Cc1cccc(C(=O)O)c1)B(O)O [6d] | – | – | – | – | – | – | – | – | – | – | – | –
7 | – | – | CO/N=C(\C(=O)N[C@@H]1C(=O)N2C(C(=O)O)=C(COC(C)=O)CS[C@H]12)c1csc(N)n1 [CTX, Cefotaxime, reference compound] | 16 | 64 | 128 | 1024 | 1024 | 512 | 2048 | 64 | 256 | 1024 | 32 | –
8 | 193 ± 23 | > 1000 | CC[C@@H](NS(=O)(=O)Cc1ccccc1)B(O)O [6c] | – | – | – | – | – | – | – | – | – | – | – | –

Row | Compound | Ki (ADC-33) [µM] | Ki (OXA-24/40 [13]) [µM] | MIC, antibiotic alone [1] [mg/L] | MIC, antibiotic alone [3] [mg/L] | MIC, antibiotic alone [4] [mg/L] | MIC, antibiotic alone [5] [mg/L] | MIC, antibiotic alone [6] [mg/L] | MIC, antibiotic alone [7] [mg/L] | MIC, antibiotic alone [8] [mg/L] | MIC, antibiotic alone [9] [mg/L] | MIC, antibiotic alone [10] [mg/L] | MIC, antibiotic alone [11] [mg/L] | MIC, antibiotic alone [12] [mg/L] | further results
9 | C[C@@H](NS(=O)(=O)Cc1ccccc1)B(O)O [6a] | 3.1 ± 0.5 | 630 ± 70 | – | – | – | – | – | – | – | – | – | – | – | fold less potent than 6b, ADC-33 (ADC-33; ratio of Ki, 6a vs 6b): 4 fold
